Assays:
[1] = test system: HCT-116; assay: MTT antiproliferative assay, HCT-116; format: cell-based, human; conditions: 72 h, colorectal carcinoma HCT-116
Method: (§1) The colorimetric MTT (3-(4,5-dimethylthiazol-2-yl)-2,5-diphenyltetrazolium bromide) assay was used to measure the cell viability of all of the above cell lines following treatment with target hybrids. Exponentially growing cells were added into 96-well plates at a concentration of 2000–4000 cells per well. Following attachment the cells were treated with varying concentrations (64, 16, 4, 1, 0.25, 0.0625 and 0.015625 µM) of target compounds in media and were kept for incubation for 72 h. MTT (20 µL, 5 mg/mL in PBS) was added to each well and the cells were incubated for another 3 h at 37 °C. Then the medium was removed, followed by the addition of 150 µL DMSO for each well. After that, the absorbance (OD) data of each well at 570 nm wavelength were measured by a Microplate Reader (BIO-RAD), and half inhibition rates (IC50) were calculated[59]^,[60].

[2] = test system: L-02; assay: MTT assay, normal hepatic L-02 cell line; format: cell-based; conditions: human normal hepatic L-02 cell line
Method: as §1

[3] = test system: B16; assay: MTT antiproliferative assay, B16; format: cell-based; conditions: 72 h, melanoma B16
Method: as §1

[4] = test system: K562; assay: MTT antiproliferative assay, K562; format: cell-based, human; conditions: 72 h, chronic myeloid leukaemia K562
Method: as §1

[5] = test system: HepG2; assay: MTT antiproliferative assay, HepG2; format: cell-based, human; conditions: 72 h, hepatoma HepG2
Method: as §1

[6] = test system: PBMC; assay: MTT assay, peripheral blood mononuclear cells; format: cell-based, human; conditions: 72 h
Method: as §1

[7] = test system: MCF-7; assay: MTT antiproliferative assay, MCF-7; format: cell-based, human; conditions: breast carcinoma MCF-7
Method: as §1

Compound	IC50 [1] [µM]	IC50 [3] [µM]	IC50 [4] [µM]	IC50 [5] [µM]	IC50 ([7]; 72 h) [µM]	IC50 ([1]; Homo sapiens) [µM]	IC50 ([4]; Homo sapiens) [µM]	IC50 ([5]; Homo sapiens) [µM]	IC50 ([7]; Homo sapiens, MCF7, 72 h) [µM]	IC50 ([2]; 72 h) [µM]	IC50 [6] [µM]	IC50 ([2]; L02, 72 h) [µM]	IC50 ([6]; Homo sapiens, PBMC) [µM]
4-(2-((3-Carboxy-6-methyl-4-oxo-4H-chromen-2-yl)amino)ethoxy)-3-(phenylsulfonyl)-1,2,5-oxadiazole 2-oxide [12b]	26.9 ± 1.61	31.4 ± 1.34	12.5 ± 1.03	21.3 ± 1.58	26.6 ± 1.6					> 50	> 50		
4-(3-(6-Methyl-4-oxo-4H-chromene-3-carboxamido)propoxy)-3-(phenylsulfonyl)-1,2,5-oxadiazole 2-oxide [12c]	25.4 ± 1.76	26.9 ± 1.08	12.5 ± 0.77	21.5 ± 1.23	> 50					> 50	> 50		
4-(3-((3-Carboxy-6-methyl-4-oxo-4H-chromen-2-yl)amino)propoxy)-3-(phenylsulfonyl)-1,2,5-oxadiazole 2-oxide [12d]	8.64 ± 0.58	9.96 ± 0.67	4.94 ± 0.25	7.91 ± 0.4	15.9 ± 0.66					33.6 ± 2.95	> 50		
O=c1[nH]cc(F)c(=O)[nH]1 [5-Fu, fluorouracil, reference compound]		12.6 ± 1.06				6.86 ± 0.37	3.94 ± 0.17	32.6 ± 1.98	26.7 ± 1.92			> 50	> 50
NCCOc1no[n+]([O-])c1S(=O)(=O)c1ccccc1 [5a, 4-(2-aminoethoxy)-3-(phenylsulfonyl)-1,2,5-oxadiazole-2-oxide]		27.9 ± 1.23				29.9 ± 1.47	18.9 ± 0.73	21.8 ± 1.35	> 50			> 50	> 50
NCCCOc1no[n+]([O-])c1S(=O)(=O)c1ccccc1 [5b, 4-(3-aminopropoxy)-3-(phenylsulfonyl)-1,2,5-oxadiazole-2-oxide]		22.9 ± 1.46				18.9 ± 1.67	20.3 ± 1.88	17.8 ± 1.43	> 50			> 50	> 50
CC(CN)Oc1no[n+]([O-])c1S(=O)(=O)c1ccccc1 (stereo not shown) [5c, 4-((1-aminopropan-2-yl)oxy)-3-(phenylsulfonyl)-1,2,5-oxadiazole-2-oxide]		> 50				> 50	> 50	> 50	> 50			> 50	> 50
O=S(=O)(c1ccccc1)c1c(OCCN2CCNCC2)no[n+]1[O-] [5d, 3-(phenyl-sulfonyl)-4-(2-(piperazin-1-yl)ethoxy)-1,2,5-oxadiazole-2-oxide]		> 50				> 50	> 50	> 50	> 50			> 50	> 50
Cc1ccc2occ(C(=O)NCCOc3no[n+]([O-])c3S(=O)(=O)c3ccccc3)c(=O)c2c1 [12a, (2-(6-Methyl-4-oxo-4H-chromene-3-carboxamido)ethoxy)-3-(phenylsulfonyl)-1,2,5-oxadiazole 2-oxide]		> 50				> 50	> 50	> 50	> 50			> 50	> 50
Cc1ccc2occ(C(=O)O)c(=O)c2c1 [compound 10]		> 50				> 50	> 50	> 50	> 50			> 50	> 50
COc1ccc2occ(C(=O)O)c(=O)c2c1 [compound 11]		> 50				> 50	> 50	> 50	> 50			> 50	> 50

Second part, led by results:

IC50 [1] [µM]	IC50 [3] [µM]	IC50 [4] [µM]	IC50 [5] [µM]	IC50 ([7]; 72 h) [µM]	IC50 ([1]; Homo sapiens) [µM]	IC50 ([4]; Homo sapiens) [µM]	IC50 ([5]; Homo sapiens) [µM]	IC50 ([7]; Homo sapiens, MCF7, 72 h) [µM]	Compound	IC50 ([2]; 72 h) [µM]	IC50 [6] [µM]	IC50 ([2]; L02, 72 h) [µM]	IC50 ([6]; Homo sapiens, PBMC) [µM]
29.6 ± 1.48	27.9 ± 1.23	13.6 ± 0.85	19.9 ± 1.31	> 50					2-((1-(6-Methyl-4-oxo-4H-chromene-3-carboxamido)propan-2-yl)oxy)-3-(phenylsulfonyl)-1,2,5-oxadiazole 2-oxide [14a]	> 50	> 50		
7.87 ± 0.32	11.7 ± 0.52	2.75 ± 0.17	5.38 ± 0.19	13.8 ± 0.49					4-(2-(4-(3-Carboxy-6-methyl-4-oxo-4H-chromen-2-yl)piperazin-1-yl)ethoxy)-3-(phenlsulfonyl)-1,2,5-oxadiazole 2-oxide [14d]	28.9 ± 1.43	> 50		
13.2 ± 0.53	16.8 ± 0.74	5.89 ± 0.26	10.6 ± 0.72	22.1 ± 1.38					4-(2-(6-Methoxy-4-oxo-4H-chromene-3-carboxamido)ethoxy)-3-(phenylsulfonyl)-1,2,5-oxadiazole 2-oxide [13a]	> 50	> 50		
26.9 ± 1.4	26.8 ± 1.22	13.6 ± 0.76	22.6 ± 1.39	24.8 ± 1.28					4-(2-((3-Carboxy-6-methoxy-4-oxo-4H-chromen-2-yl)amino)ethoxy)-3-(phenylsulfonyl)-1,2,5-oxadiazole 2-oxide [13b]	> 50	> 50		
> 50	> 50	> 50	> 50	> 50					4-(3-((3-Carboxy-6-methoxy-4-oxo-4H-chromen-2-yl)amino)propoxy)-3-(phenylsulfonyl)-1,2,5-oxadiazole 2-oxide [13d]	> 50	> 50		
> 50	> 50	> 50	> 50	> 50					4-((1-((3-Carboxy-6-methoxy-4-oxo-4H-chromen-2-yl)amino)propan-2-yl)oxy)-3-(phenylsulfonyl)-1,2,5-oxadiazole 2-oxide [15b]	> 50	> 50		
> 50	> 50	> 50	> 50	> 50					4-((1-((3-Carboxy-6-methyl-4-oxo-4H-chromen-2-yl)amino)propan-2-yl)oxy)-3-(phenylsulfonyl)-1,2,5-oxadiazole 2-oxide [14b]	> 50	> 50		
	> 50				> 50	> 50	> 50	> 50	COc1ccc2occ(C(=O)NCCCOc3no[n+]([O-])c3S(=O)(=O)c3ccccc3)c(=O)c2c1 [13c, 4-(3-(6-Methoxy-4-oxo-4H-chromene-3-carboxamido)propoxy)-3-(phenylsulfonyl)-1,2,5-oxadiazole 2-oxide]			> 50	> 50
	10.6 ± 0.53				7.93 ± 0.44	2.98 ± 0.14	5.67 ± 0.42	12.8 ± 1.46	Cc1ccc2occ(C(=O)N3CCN(CCOc4no[n+]([O-])c4S(=O)(=O)c4ccccc4)CC3)c(=O)c2c1 [14c, 4-(2-(4-(6-Methyl-4-oxo-4H-chromene-3-carbonyl)piperazin-1-yl)ethoxy)-3-(phenylsulfonyl)-1,2,5-oxadiazole 2-oxide]			41.3 ± 2.58	> 50
	23.5 ± 1.61				22.4 ± 1.72	8.93 ± 0.36	25.6 ± 1.57	37.6 ± 2.24	COc1ccc2occ(C(=O)N3CCN(CCOc4no[n+]([O-])c4S(=O)(=O)c4ccccc4)CC3)c(=O)c2c1 [15c, 4-(2-(4-(6-Methoxy-4-oxo-4H-chromene-3-carbonyl)piperazin-1-yl)ethoxy)-3-(phenylsulfonyl)-1,2,5-oxadiazole 2-oxide]			> 50	> 50
	35 ± 1.25				12.9 ± 1.02	4.07 ± 0.39	9.56 ± 2.37	16.9 ± 1.29	COc1ccc2oc(N3CCN(CCOc4no[n+]([O-])c4S(=O)(=O)c4ccccc4)CC3)c(C(=O)O)c(=O)c2c1 [15d, 4-(2-(4-(3-Carboxy-6-methoxy-4-oxo-4H-chromen-2-yl)piperazin-1-yl)ethoxy)-3-(phenylsulfonyl)-1,2,5-oxadiazole 2-oxide]			> 50	> 50
